{
  "source": "patent US20080193576A1",
  "about": "“Antiphlogistic and analgesic composition for topical use in a region of an animal locomotive system” (priority 2007, published 2008)",
  "test": "tests of the topical composition carried out on persons",
  "format": "in vivo",
  "conditions": "compared as hydrogel-soluble NSAID component at about 2-10% of the composition",
  "data": [
    {"molecule": "COC(=O)c1ccccc1O", "note": "[methyl salicylate]", "values": [
      {"measurement": "efficacy of the non-steroidal anti-inflammatory agent within the inventive composition", "result": "most efficacious"}
    ]}
  ]
}
